According to patent US4853221A, “Method for treating non-small cell lung cancer, head and neck cancers and breast cancer” (Warner-Lambert Company, priority 1987, dated 1989):

Columns and labels:
P388 murine leukemia = assay: Schedule dependence against P388 murine leukemia; type: in vivo, mouse
Method: In the L1210, P388, and B-16 melanoma models, results are expressed as a percentage of median control survival time. Percentage of increase in survival time and/or cures (30 day survivors) were the parameters used to measure the effectiveness of the agents.
(§1) Percent increase in median life span (% ILS) values appearing in the tables were calculated from the formula; 100×(median life span in days of treated mice minus median life span in days of untreated mice) divided by median life span in days of untreated control mice. That is, % ILS=[100×(T-C)]/C. % T/C and %ILS are directly interconvertible by the formula % ILS=% T/C -100.
L1210 Leukemic Cells (10^5 /mouse) and P388 leukemic cells (10^6 /mouse)were in the ascites form and were transferred to BD2F1 or CD2F1 mice by intraperitoneal (ip) injection of 0.1 ml of cells taken from animals bearing 6- to 7-day old tumors. Leukemic cells were injected ip one day prior to the start of treatment.
The dose schedule dependence of trimetrexate was tested against transplanted P388 leukemia using the protocol outlined above.

breast cancer = assay: Phase II trial, breast cancer; type: in vivo, human
Method: The efficacy and safety of trimetrexate in the treatment of patients with breast cancer was evaluated in an 10-center Phase II study. Twenty-eight patients participated in the multicenter study, with a group of 20 patients considered evaluable. […] All patients had metastatic disease and the principal sites of metastasis included lung, bone, and liver.
Patients were initially treated intravenously with 8 mg/m^2 /day of trimetrexate on Days 1 through 5 of a 21-day treatment cycle. Patients were evaluated after each treatment course and were withdrawn from the study if progressive disease was documented. Patients were eligible to received six courses of treatment if stable disease was documented; treatment beyond six courses was left to the discretion of the physician. The dose of trimetrexate was adjusted for each patient prior to each subsequent course of treatment based upon the patient reaction to the drug in the preceding course of treatment, and ranged from 8 mg/m^2 /day to about […]. A total of 91 courses of treatment were administered to the patients in the study.

dihydrofolate reductase = assay: Inhibition of dihydrofolate reductase; type: biochemical
Breast tumor = assay: Human tumor cloning system, breast tumors; type: cell-based; conditions: one hour, 10 specimens
Description: The activity of trimetrexate was compared with that of methotrexate in tests with a human tumor cloning system (Latham, et al., Proc. Am. Assoc. Cancer Res., 24: 278 (1983)). The data from these tests appear in Table III were the activities are expressed as the numbers of tumors with 50% or greater reduction in tumor colony forming units after one hour exposure to the drug.

colon carcinoma = assay: Phase I clinical trials, colon carcinoma; type: in vivo, human; conditions: single agent
Method: Several Phase I clinical trials employing trimetrexate in human patients were carried out. In one study, 36 patients were treated with trimetrexate as a single agent at daily doses of 0.5 mg/m^2 /day to 12 mg/m^2 /day administered intravenously for five days.
In additional Phase I clinical studies, patients were administered trimetrexate with single intravenous doses ranging between 5 and 450 mg/m^2 and with weekly doses of slightly greater than 100 mg/m^2.

[1] = test system: metastatic squamous cell cancer of the head and neck; assay: Phase II trial, metastatic squamous cell cancer of the head and neck; type: in vivo, human
Method: The efficacy and safety of trimetrexate in the treatment of patients with metastatic squamous cell cancer of the head and neck was evaluated in an 11-center Phase II study.
The primary sites of disease in the patients included head and neck (not otherwise specified), hypopharynx, floor of the mouth, oropharynx, tongue, and other parts of the mouth, nasal cavity, and larynx.
Patients were initially treated intravenously with 8 mg/m^2 /day of trimetrexate on Days 1 through 5 of a 21-day treatment cycle. Patients were evaluated after each treatment course and were withdrawn from the study if progressive disease was documented. Patients were eligible to received six courses of treatment if stable disease was documented, or were eligible to receive continued treatment with trimetrexate if a response was documented.

B-16 Melanoma = assay: Antitumor activity against B-16 melanoma in mice; type: in vivo, mouse; conditions: for Life Span % ILS / Life Span % T/C: ip daily, Days 1-9
Method: The growth inhibition properties of 5-methyl-6-[[(3,4,5-trimethoxyphenyl)amino]methyl]-2,4-quinazolinediamine (trimetrexate) against several transplanted murine tumors were evaluated employing the antitumor screening program of the Drug Evaluation Branch of the National Cancer Institute. The protocols for these tests is described in Cancer Chemotherapy Reports, 3: 1-103 (1972). The dosing schedules are results from these tests appear in Table IV.
In the L1210, P388, and B-16 melanoma models, results are expressed as a percentage of median control survival time. Percentage of increase in survival time and/or cures (30 day survivors) were the parameters used to measure the effectiveness of the agents. An initial median survival value for treated over control percentage (% T/C) equal to or greater than 125% was considered indicative of activity. For confirmatory activity, two multidose assays must show % T/C values equal to or greater than 150%.
as §1
B16 Melanotic melanoma was implanted into BD2F1 mice in the form of a tumor "brei" prepared from a 1:10 weight/volume homogenate of the tumor in balanced salt solution.
In all of the mouse tumor studies described above, routine controls consisted of matching ten normal mice (with no tumors) to each tumor-bearing treatment group and injecting them with the same drug at the same dosages, schedules, days of administration, and drug route as the tumor-bearing mice. In this way, drug-induced toxicity (lethality and weight loss) could be clearly separated from the effects of the drug on the tumors.

[2] = 13 mg/kg, every 3 hours, daily, Days 1, 5, and 9
[3] = 20 mg/kg, every 3 hours, daily, Days 1, 5, and 9
[4] = 30 mg/kg, every 3 hours, daily, Days 1, 5, and 9
[5] = 45 mg/kg, every 3 hours, daily, Days 1, 5, and 9
[6] = optimal dose 20 mg/kg (dose range 20-0.62)
[7] = optimal dose 20 mg/kg (dose range 40-1.25)

For COc1cc(NCc2ccc3nc(N)nc(N)c3c2C)cc(OC)c1OC [Trimetrexate, 5-methyl-6-[[(3,4,5-trimethoxyphenyl)amino]methyl]-2,4-quinazolinediamine], the “% T/C” value (P388 murine leukemia; [2]) was 185%, the “Weight Change” value (P388 murine leukemia; [2]) was 1.0 Grams and the “% T/C” value (P388 murine leukemia; [3]) was 194%. For the same compound, the “Weight Change” value (P388 murine leukemia; [3]) was -0.2 Grams, the “% T/C” value (P388 murine leukemia; 22 mg/kg, Days 1 and 9) was 164% and the “Weight Change” value (P388 murine leukemia; 22 mg/kg, Days 1 and 9) was 1.8 Grams. For the same compound, the “% T/C” value (P388 murine leukemia; [4]) was 203%, the “Weight Change” value (P388 murine leukemia; [4]) was 0.6 Grams and the “% T/C” value (P388 murine leukemia; 33 mg/kg, Days 1 and 9) was 169%. The “Weight Change” value (P388 murine leukemia; 33 mg/kg, Days 1 and 9) was 0.8 Grams, the “% T/C” value (P388 murine leukemia; [5]) was 212% and the “Weight Change” value (P388 murine leukemia; [5]) was -1.7 Grams. The “% T/C” value (P388 murine leukemia; 50 mg/kg, Days 1 and 9) was 166%, the “Weight Change” value (P388 murine leukemia; 50 mg/kg, Days 1 and 9) was 0.3 Grams and the “% T/C” value (P388 murine leukemia; 53 mg/kg, Day 1 only) was 100%. For the same compound, the “% T/C” value (P388 murine leukemia; 53 mg/kg, Days 1, 5, and 9) was 116%, the “Weight Change” value (P388 murine leukemia; 53 mg/kg, Days 1, 5, and 9) was 2.9 Grams and the “% T/C” value (P388 murine leukemia; 75 mg/kg, Days 1 and 9) was 181%. For the same compound, the “Weight Change” value (P388 murine leukemia; 75 mg/kg, Days 1 and 9) was -2.6 Grams, the “% T/C” value (P388 murine leukemia; 80 mg/kg, Day 1 only) was 104% and the “% T/C” value (P388 murine leukemia; 80 mg/kg, Days 1, 5, and 9) was 119%. The “Weight Change” value (P388 murine leukemia; 80 mg/kg, Days 1, 5, and 9) was 1.3 Grams, the “% T/C” value (P388 murine leukemia; 120 mg/kg, Day 1 only) was 113% and the “% T/C” value (P388 murine leukemia; 120 mg/kg, Days 1, 5, and 9) was 154%. For the same compound, the “Weight Change” value (P388 murine leukemia; 120 mg/kg, Days 1, 5, and 9) was -2.5 Grams, the “% T/C” value (P388 murine leukemia; 180 mg/kg, Day 1 only) was 12% and the “% T/C” value (P388 murine leukemia; 180 mg/kg, Days 1, 5, and 9) was 9%. The optimal dose regimen (P388 murine leukemia; every three hours on Days 1, 5, and 9, minimal weight loss and maximum life span response) was “about 30 mg/kg/injection”, the “patients with stable disease” value (breast cancer; 20 evaluable patients) was 10 patients and the “patients with partial response” value (breast cancer; 20 evaluable patients, initial 8 mg/m^2/day iv Days 1-5 of 21-day cycle) was 3 patients. For the same compound, the partial response rate (breast cancer; p5% confidence interval 0-30.6%, 20 evaluable patients) was 15%, the “median duration of partial response” value (breast cancer; range 6.4-18.7+ weeks) was 13.1 weeks and the “inhibition of dihydrofolate reductase” value (dihydrofolate reductase) was “potent inhibitor”. The “Number of Tumors with 50% or Greater Decrease in Tumor Colony Forming Units” value (Breast tumor; trimetrexate 0.1 μg/ml) was 0, the “Number of Tumors with 50% or Greater Decrease in Tumor Colony Forming Units” value (Breast tumor; trimetrexate 1.0 μg/ml) was 2 and the “patients with favorable responses” value (colon carcinoma) was “four”. The “patients with partial response” value ([1]; 38 evaluable patients, initial 8 mg/m^2/day iv Days 1-5 of 21-day cycle) was “Ten”, the partial response rate ([1]; 95% confidence interval 12-40%, evaluable patients) was 26% and the “patients with stable disease” value ([1]; in vivo) was “Nineteen”. The “median duration of response” value ([1]; range 4.1-59+ weeks, ten responders) was 12.2 weeks, the “median time to progressive disease” value ([1]; range 9.3-74+ weeks) was 19.1 weeks and the “antitumor activity” value (B-16 Melanoma; intraperitoneally implanted) was “good activity”. For the same compound, the “Life Span % ILS” value (B-16 Melanoma; [6]) was 50%, the “Life Span % T/C” value (B-16 Melanoma; [6]) was 150% and the “Life Span % ILS” value (B-16 Melanoma; [7]) was 64%. The “Life Span % T/C” value (B-16 Melanoma; [7]) was 164%.
